Source: patent US9834563B2 (Merck Sharp & Dohme Corp., priority 2013, dated 2017)

What was measured:
Human GPR40 [1] = molecular target: T1, Human GPR40 (Homo sapiens, UniProt O14842); assay: Inositol phosphate turnover (IP1) assay in HEK cells stably expressing human GPR40; type: cell-based; set-up: expressed in transfected cells; settings: HEK cells stably expressing human GPR40, 3H-inositol labeling, 60 min compound incubation
Experimental: (§1) Human and mouse GPR40 stable cell-lines were generated in CHO cells stably expressing NFAT BLA (Beta-lactamase). A human GPR40 stable cell-line was generated in HEK cells stably expressing the aequorin expressing reporter. The expression plasmids were transfected using lipofectamine, LIFE TECHNOLOGIES (Carlsbad, Calif.), following manufacturer's instructions. Stable cell-lines were generated following drug selection.
The assay is performed in a 96-well format. HEK cells stably expressing human GPR40 are plated to be 60-80% confluent within 72 h. After 72 h, the plates are aspirated and the cells washed with inositol-free DMEM (ICN). The wash media is replaced with 150 μL of 3H-inositol labeling media (inositol-free media containing 0.4% human albumin or 0.4% mouse albumin, 1× pen/strep antibiotics, glutamine, 25 mM HEPES to which is added 3H-myo-inositol NEN #NET114A 1 mCi/mL, 25 Ci/mmol diluted 1:150 in loading media with a final specific radioactivity of 1 μCi/150 μL). Alternatively, the human and mouse albumin can be added after the overnight labeling step before the addition of LiCl.
The assay is typically run the next day after 18 h labeling. On the day of the assay, 5 μL of 300 mM LiCl is added to all wells and incubated at 37 degrees for 20 min. 0.75 μL of 200× compounds are added and incubated with the cells for 60 min at 37 degrees. The media is then aspirated off and the assay terminated with the addition of 60 μL 10 mM formic acid. The cells are lysed for 60 min at room temperature. 15-30 μL of lysate is mixed with 70 μL/1 mg YSi SPA beads AMERSHAM (United Kingdom) in clear bottom Isoplates. The plates are shaken for 2 h at room temperature. Beads are allowed to settle and the plates are counted in the Wallac MICROBETA instrument. The activities of the compounds in the examples have EC50 (effective concentration of compound to afford 50% of the maximum observed […]) values listed in Table I.

Human GPR40 [2] = molecular target: T1, Human GPR40; assay: FLIPR assay: agonist-induced calcium mobilization in GPR40/CHO NFAT BLA cells; type: cell-based; set-up: expressed in transfected cells; host or cells: CHO cells stably expressing NFAT BLA (beta-lactamase)
Description: as §1
FLIPR (Fluorimetric Imaging Plate Reader, Molecular Devices) assays were performed to measure agonist-induced calcium mobilization of the stable clones. For the FLIPR assay, one day before assay, GPR40/CHO NFAT BLA cells were seeded into black-wall-clear-bottom 384-well plates (Costar) at 1.4×10e4 cells/20 μL medium/well. The cells were incubated with 20 μl/well of the assay buffer (HBSS, 0.1% BSA, 20 mM HEPES, 2.5 mM probenecid, pH 7.4) containing 8 μM fluo-4, AM, 0.08% pluronic acid at room temperature for 100 minutes. Fluorescence output was measured using FLIPR. Compounds were dissolved in DMSO and diluted to desired concentrations with assay buffer. 13.3 μL/well of compound solution was added. The activities of the compounds in the examples have EC50 (effective concentration of compound to afford 50% of the maximum observed fluorescence) values listed in Table I.

T1 sequence (O14842 whole entry): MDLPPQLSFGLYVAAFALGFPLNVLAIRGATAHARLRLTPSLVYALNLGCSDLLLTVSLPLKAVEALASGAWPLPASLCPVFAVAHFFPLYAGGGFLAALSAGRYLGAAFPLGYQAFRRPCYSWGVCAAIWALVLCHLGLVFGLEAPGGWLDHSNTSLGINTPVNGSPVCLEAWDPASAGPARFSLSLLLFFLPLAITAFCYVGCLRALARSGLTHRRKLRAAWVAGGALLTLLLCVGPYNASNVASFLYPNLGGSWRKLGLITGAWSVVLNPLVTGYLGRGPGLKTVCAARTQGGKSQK

## Cc1nc(OCCCS(C)(=O)=O)ccc1-c1ccc(F)c(COc2ccc3c(c2)C[C@H]2[C@H](C(=O)O)[C@@H]32)c1F [Example 20, 4-(2,6-Difluoro-3-[6-(3-methanesulfonyl-propoxy)-2-methyl-pyridin-3-yl]-benzyloxy)-1,1a,6,6a-tetrahydro-cyclopropa[a]indene-1-carboxylic acid]
Human GPR40 [1]
  EC50: 51.5 nM
Human GPR40 [2]
  EC50: 179 nM

## Cc1ccc(COc2ccc3c(c2)C[C@H]2[C@H](C(=O)O)[C@@H]32)cc1-c1cnc2c(ccn2CCCS(C)(=O)=O)c1 [Example 23, (1S,1aS,6aR)-4-((4-methyl-3-(1-(3-(methylsulfonyl)propyl)-1H-pyrrolo[2,3-b]pyridin-5-yl)benzyl)oxy)-1,1a,6,6a-tetrahydrocyclopropa[a]indene-1-carboxylic acid]
Human GPR40 [1]
  EC50: 84.5 nM
Human GPR40 [2]
  EC50: 74.2 nM

## O=C(O)[C@H]1[C@@H]2Cc3cc(OCc4cc(-c5cnc6[nH]ccc6c5)ccc4F)ccc3[C@@H]21 [Example 24, (1S,1aS,6aR)-4-((2-fluoro-5-(1H-pyrrolo[2,3-b]pyridin-5-yl)benzyl)oxy)-1,1a,6,6a-tetrahydrocyclopropa[a]indene-1-carboxylic acid]
Human GPR40 [1]
  EC50: 304 nM
Human GPR40 [2]
  EC50: 73.3 nM

## Cc1nc(OC[C@@H]2CCCC[C@H]2S(C)(=O)=O)ccc1-c1ccc(F)c(COc2ccc3c(c2)C[C@H]2[C@H](C(=O)O)[C@@H]32)c1 [Example 25, (1S,1aS,6aR)-4-((2-fluoro-5-(2-methyl-6-(((1S,2R)-2-(methylsulfonyl)cyclohexyl)methoxy)pyridin-3-yl)benzyl)oxy)-1,1a,6,6a-tetrahydrocyclopropa[a]indene-1-carboxylic acid]
Human GPR40 [1]
  EC50: 39 nM
Human GPR40 [2]
  EC50: 67.9 nM

## Cc1nc(OCC2(O)CCCCC2O)ccc1-c1ccc(F)c(COc2ccc3c(c2)C[C@H]2[C@H](C(=O)O)[C@@H]32)c1 (stereo partly drawn) [Example 26, (1S,1aS,6aR)-4-((5-(6-((1,2-dihydroxycyclohexyl)methoxy)-2-methylpyridin-3-yl)-2-fluorobenzyl)oxy)-1,1a,6,6a-tetrahydrocyclopropa[a]indene-1-carboxylic acid]
Human GPR40 [1]
  EC50: 25.5 nM
Human GPR40 [2]
  EC50: 83.8 nM

## Cc1nc(OCC2CCC[C@H](O)[C@@H]2O)ccc1-c1ccc(F)c(COc2ccc3c(c2)C[C@H]2[C@H](C(=O)O)[C@@H]32)c1 (stereo partly drawn) [Example 27, (1S,1aS,6aR)-4-((5-(6-(((2R,3S)-2,3-dihydroxycyclohexyl)methoxy)-2-methylpyridin-3-yl)-2-fluorobenzyl)oxy)-1,1a,6,6a-tetrahydrocyclopropa[a]indene-1-carboxylic acid]
Human GPR40 [1]
  EC50: 10 nM
Human GPR40 [2]
  EC50: 48.9 nM

## Cc1nc(OCC2CCOCC2)ccc1-c1ccc(F)c(COc2ccc3c(c2)C[C@H]2[C@H](C(=O)O)[C@@H]32)c1 [Example 28, (1S,1aS,6aR)-4-((2-fluoro-5-(2-methyl-6-((tetrahydro-2H-pyran-4-yl)methoxy)pyridin-3-yl)benzyl)oxy)-1,1a,6,6a-tetrahydrocyclopropa[a]indene-1-carboxylic acid]
Human GPR40 [1]
  EC50: 8 nM
Human GPR40 [2]
  EC50: 18.5 nM

## Cc1nc(OCCCCn2nccn2)ccc1-c1ccc(F)c(COc2ccc3c(c2)CC2C(C(=O)O)C32)c1 (stereo not shown) [Example 29, 4-((5-(6-(4-(2H-1,2,3-triazol-2-yl)butoxy)-2-methyl-pyridin-3-yl)-2-fluorobenzyl)oxy)-1,1a,6,6a-tetrahydrocyclo-propa[a]indene-1-carboxylic acid]
Human GPR40 [1]
  EC50: 26.5 nM
Human GPR40 [2]
  EC50: 16.1 nM

## Cc1cc(OCCC2(O)COC2)ncc1-c1ccc(F)c(COc2ccc3c(c2)C[C@H]2[C@H](C(=O)O)[C@@H]32)c1 [Example 30, (1S,1aS,6aR)-4-((2-fluoro-5-(6-(2-(3-hydroxyoxetan-3-yl)ethoxy)-4-methylpyridin-3-yl)benzyl)oxy)-1,1a,6,6a-tetrahydro-cyclopropa[a]indene-1-carboxylic acid]
Human GPR40 [1]
  EC50: 30 nM
Human GPR40 [2]
  EC50: 49.2 nM

## Cc1nc(O[C@@H]2CO[C@H]3[C@@H]2OC[C@@H]3O)ccc1-c1ccc(F)c(COc2ccc3c(c2)C[C@H]2[C@H](C(=O)O)[C@@H]32)c1 [Example 31, (1S,1aS,6aR)-4-((2-fluoro-5-(6-(((3R,3aR,6S,6aR)-6-hydroxyhexahydrofuro[3,2-b]furan-3-yl)oxy)-2-methylpyridin-3-yl)benzyl)oxy)-1,1a,6,6a-tetrahydrocyclopropa[a]indene-1-carboxylic acid]
Human GPR40 [1]
  EC50: 14 nM
Human GPR40 [2]
  EC50: 30.9 nM

## CS(=O)(=O)CCCOc1cc(C(F)(F)F)c(-c2ccc(F)c(COc3ccc4c(c3)C[C@H]3[C@H](C(=O)O)[C@@H]43)c2)cn1 [Example 32, (1S,1aS,6aR)-4-((2-fluoro-5-(6-(3-(methylsulfonyl)propoxy)-4-(trifluoromethyl)pyridin-3-yl)benzyl)oxy)-1,1a,6,6a-tetrahydrocyclopropa[a]indene-1-carboxylic acid]
Human GPR40 [1]
  EC50: 5 nM
Human GPR40 [2]
  EC50: 20.6 nM

## Cc1nc(OCCCOCc2ccccc2)ccc1-c1ccc(F)c(COc2ccc3c(c2)C[C@H]2[C@H](C(=O)O)[C@@H]32)c1 [Example 34, (1S,1aS,6aR)-4-((5-(6-(3-(benzyloxy)propoxy)-2-methylpyridin-3-yl)-2-fluorobenzyl)oxy)-1,1a,6,6a-tetrahydrocyclo-propa[a]indene-1-carboxylic acid]
Human GPR40 [1]
  EC50: 889 nM
Human GPR40 [2]
  EC50: 75.1 nM

## Cc1nc(OC2CCS(=O)(=O)CC2)ccc1-c1ccc(F)c(C(C)Oc2ccc3c(c2)C[C@H]2[C@H](C(=O)O)[C@@H]32)c1 (stereo partly drawn) [Example 35, (1S,1aS,6aR)-4-(1-(5-(6-((1,1-dioxidotetrahydro-2H-thiopyran-4-yl)oxy)-2-methyl-pyridin-3-yl)-2-fluorophenyl)ethoxy)-1,1a,6,6a-tetrahydrocyclo-propa[a]indene-1-carboxylic acid]
Human GPR40 [1]
  EC50: 1390 nM
Human GPR40 [2]
  EC50: 77.8 nM

## Cc1nc(OCCCN2CCCC2=O)ccc1-c1ccc(F)c(COc2ccc3c(c2)C[C@H]2[C@H](C(=O)O)[C@@H]32)c1 [Example 36, (1S,1aS,6aR)-4-((2-fluoro-5-(2-methyl-6-(3-(2-oxopyrrolidin-1-yl)propoxy)pyridin-3-yl)benzyl)oxy)-1,1a,6,6a-tetrahydrocyclo-propa[a]indene-1-carboxylic acid]
Human GPR40 [1]
  EC50: 20.5 nM
Human GPR40 [2]
  EC50: 19.9 nM

## Cc1nc(OCCCC2(O)CC2)ccc1-c1ccc(F)c(COc2ccc3c(c2)C[C@H]2[C@H](C(=O)O)[C@@H]32)c1 [Example 37, (1S,1aS,6aR)-4-((2-fluoro-5-(6-(3-(1-hydroxycyclopropyl)propoxy)-2-methylpyridin-3-yl)benzyl)oxy)-1,1a,6,6a-tetrahydrocyclopropa[a]indene-1-carboxylic acid]
Human GPR40 [1]
  EC50: 14.7 nM
Human GPR40 [2]
  EC50: 16.6 nM

## Cc1nc(OC2CCC(C(C)(C)O)CC2)ccc1-c1ccc(F)c(COc2ccc3c(c2)C[C@H]2[C@H](C(=O)O)[C@@H]32)c1 (stereo partly drawn) [Example 38, (1S,1aS,6aR)-4-((2-fluoro-5-(6-((4-(2-hydroxypropan-2-yl)cyclohexyl)oxy)-2-methylpyridin-3-yl)benzyl)oxy)-1,1a,6,6a-tetrahydro-cyclopropa[a]indene-1-carboxylic acid]
Human GPR40 [1]
  EC50: 80.8 nM
Human GPR40 [2]
  EC50: 74.1 nM

## Cc1nc(N2[C@@H]3CC[C@H]2CC(O)C3)ccc1-c1ccc(F)c(COc2ccc3c(c2)C[C@H]2[C@H](C(=O)O)[C@@H]32)c1 (stereo partly drawn) [Example 39, (1S,1aS,6aR)-4-((2-fluoro-5-(6-((1R,5S)-3-hydroxy-8-azabicyclo[3.2.1]octan-8-yl)-2-methylpyridin-3-yl)benzyl)oxy)-1,1a,6,6a-tetrahydrocyclopropa[a]indene-1-carboxylic acid]
Human GPR40 [1]
  EC50: 26 nM
Human GPR40 [2]
  EC50: 47.6 nM
